Earlier results as cited in patent publication US20160000075A1, “USE OF PYRIMIDINES IN STIMULATION OF PLANT GROWTH AND DEVELOPMENT AND ENHANCEMENT OF STRESS TOLERANCE” (ULUDAG ÜNIVERSITESI TEKNOLOJI TRANSFER OFISI TICARET VE …, priority 2013, published 2016).

What was measured:
[1] = tested on: brain lesion, rotational behaviour; conditions: uridine administered in the form of UMP
tomato = conditions: 4 mM concentration
[2] = tested on: plant species such as Arabidopsis thaliana, Solanum tuberosum, Fragaria×ananassa, Medicago sativa, Triticum aestivum, Zea mays; conditions: external administration
cabbage = conditions: external administration
clover = conditions: external administration
[3] = humans
cellular regeneration = conditions: compared to only using auxin in culture medium
[4] = tested on: learning and memory functions; conditions: experimental animals, also environmentally impoverished animals
[5] = tested on: hypoxic ischemic brain damage; conditions: infant rats exposed to hypoxic ischemic brain damage
[6] = tested on: hypoxic and ischemic brain injuries; conditions: animal experiments and some clinical studies

O=c1ccn([C@@H]2O[C@H](COP(=O)(O)O)[C@@H](O)[C@H]2O)c(=O)[nH]1 [UMP, uridine-5′-monophosphate]
brain lesion and rotational behaviour [1]: ameliorated brain lesion and reduced rotational behaviour

NCCCCNCCCN [spermidine]
high temperature tolerance (tomato): increase high temperature tolerance

C[N+](C)(C)CC(=O)O [GlyBet, glycine betain]
low temperature stress tolerance [2]: increase low temperature stress tolerance
tolerance against frost (cabbage): increases tolerance against frost
tolerance against frost (clover): increases tolerance against frost

O=c1ccn([C@@H]2O[C@H](CO)[C@@H](O)[C@H]2O)c(=O)[nH]1 [uridine]
adverse effect of intravenous dose ([3]; intravenously, 10 g/m^2): cause shaking
adverse effect of high oral dosage ([3]; oral, 10 g per day): causes diarrhea
cellular regeneration (cellular regeneration): increases cellular regeneration
learning and memory functions [4]: increase learning and memory functions
level of brain damage [5]: significantly reduced the level of damage
growth and branching of neurons (neurons in the culture): increases the growth and branching of these cells

C[N+](C)(C)CCOP(=O)(O)OP(=O)([O-])OC[C@H]1O[C@@H](n2ccc(N)nc2=O)[C@H](O)[C@@H]1O [CDP-choline, cytidine-5′-diphosphate choline]
damage in hypoxic and ischemic brain injuries [6]: reduces damage in hypoxic and ischemic brain injuries
